In PubChem BioAssay (NCI):
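Here, GI50 denotes the concentration required for 50% inhibition of growth. TGI: total growth inhibition.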

Columns and labels:
Assay in all cases: NCI anticancer screen, dose series, 384-well format
NCI/ADR-RES ovarian = system: NCI/ADR-RES ovarian
MALME-3M melanoma = system: MALME-3M melanoma
RXF 393 renal = system: RXF 393 renal
786-0 renal = system: 786-0 renal
MOLT-4 leukemia = system: MOLT-4 leukemia
SNB-19 CNS = system: SNB-19 CNS
IGROV1 ovarian = system: IGROV1 ovarian
NCI-H23 lung = system: NCI-H23 lung
PC-3 prostate = system: PC-3 prostate
UACC-257 melanoma = system: UACC-257 melanoma
SNB-75 CNS = system: SNB-75 CNS
KM12 colon = system: KM12 colon
HCC-2998 colon = system: HCC-2998 colon
DU-145 prostate = system: DU-145 prostate
NCI-H522 lung = system: NCI-H522 lung
T-47D breast = system: T-47D breast
U251 glioblastoma = system: U251 glioblastoma
SK-OV-3 ovarian = system: SK-OV-3 ovarian
HOP-92 NSCLC = system: HOP-92 NSCLC
UO-31 renal = system: UO-31 renal
HL-60(TB) leukemia = system: HL-60(TB) leukemia
CAKI-1 renal = system: CAKI-1 renal
A549 NSCLC = system: A549 NSCLC
SW-620 colon = system: SW-620 colon
HCT-15 colon = system: HCT-15 colon
MDA-MB-435 melanoma = system: MDA-MB-435 melanoma
NCI-H226 lung = system: NCI-H226 lung
COLO 205 colon = system: COLO 205 colon
UACC-62 melanoma = system: UACC-62 melanoma
HS 578T breast = system: HS 578T breast
HT29 colon = system: HT29 colon
HOP-62 NSCLC = system: HOP-62 NSCLC
SF-268 CNS = system: SF-268 CNS
CCRF-CEM leukemia = system: CCRF-CEM leukemia
OVCAR-8 ovarian = system: OVCAR-8 ovarian
NCI-H322M lung = system: NCI-H322M lung
SF-539 CNS = system: SF-539 CNS
EKVX NSCLC = system: EKVX NSCLC
RPMI-8226 leukemia = system: RPMI-8226 leukemia
BT-549 breast = system: BT-549 breast
LOX IMVI melanoma = system: LOX IMVI melanoma
MCF7 breast = system: MCF7 breast
OVCAR-5 ovarian = system: OVCAR-5 ovarian
SN12C renal = system: SN12C renal
MDA-MB-231 breast = system: MDA-MB-231 breast
OVCAR-4 ovarian = system: OVCAR-4 ovarian
NCI-H460 NSCLC = system: NCI-H460 NSCLC
SK-MEL-28 melanoma = system: SK-MEL-28 melanoma
K-562 leukemia = system: K-562 leukemia
MDA-MB-468 breast = system: MDA-MB-468 breast
A498 renal = system: A498 renal
SR leukemia = system: SR leukemia
SK-MEL-5 melanoma = system: SK-MEL-5 melanoma
TK-10 renal = system: TK-10 renal
OVCAR-3 ovarian = system: OVCAR-3 ovarian
M14 melanoma = system: M14 melanoma
ACHN renal = system: ACHN renal
SF-295 CNS = system: SF-295 CNS

SMILES: CCC[C@H](N[C@H]1CCc2cc(F)cc(F)c2C1)C(=O)Nc1cn(C(C)(C)CNCC(C)(C)C)cn1
- GI50 (NCI/ADR-RES ovarian): 11.1 µM
- TGI (NCI/ADR-RES ovarian): 27.1 µM
- GI50 (MALME-3M melanoma): 2640 nM
- TGI (MALME-3M melanoma): 14.4 µM
- GI50 (RXF 393 renal): 11.1 µM
- TGI (RXF 393 renal): 27.1 µM
- GI50 ([…]-0 renal): 14.5 µM
- TGI (786-0 renal): 29.9 µM
- GI50 (MOLT-4 leukemia): 3.46 µM
- TGI (MOLT-4 leukemia): 15 µM
- GI50 (SNB-19 CNS): 21.9 µM
- TGI (SNB-19 CNS): 67.3 µM
- GI50 (IGROV1 ovarian): 25.9 µM
- TGI (IGROV1 ovarian): > 100 µM
- GI50 (NCI-H23 lung): 12.1 µM
- TGI (NCI-H23 lung): 29.6 µM
- GI50 (PC-3 prostate): 6.56 µM
- TGI (PC-3 prostate): 21.8 µM
- GI50 (UACC-257 melanoma): 5.51 µM
- TGI (UACC-257 melanoma): 21 µM
- GI50 (SNB-75 CNS): 19.4 µM
- TGI (SNB-75 CNS): 71 µM
- GI50 (KM12 colon): 16.1 µM
- TGI (KM12 colon): 35.3 µM
- GI50 (HCC-2998 colon): 7.48 µM
- TGI (HCC-2998 colon): 21.6 µM
- GI50 (DU-145 prostate): 20.6 µM
- TGI (DU-145 prostate): 74.6 µM
- GI50 (NCI-H522 lung): 18.4 µM
- TGI (NCI-H522 lung): 48.4 µM
- GI50 (T-47D breast): 6.21 µM
- TGI (T-47D breast): 40 µM
- GI50 (U251 glioblastoma): 17.3 µM
- TGI (U251 glioblastoma): 33.1 µM
- GI50 (SK-OV-3 ovarian): 15.8 µM
- TGI (SK-OV-3 ovarian): 33.2 µM
- GI50 (HOP-92 NSCLC): 11.5 µM
- TGI (HOP-92 NSCLC): 26.2 µM
- GI50 (UO-31 renal): 14.9 µM
- TGI (UO-31 renal): 32.4 µM
- GI50 (HL-60(TB) leukemia): 10.7 µM
- TGI (HL-60(TB) leukemia): 22.6 µM
- GI50 (CAKI-1 renal): 14.2 µM
- TGI (CAKI-1 renal): 31.6 µM
- GI50 (A549 NSCLC): 22.2 µM
- TGI (A549 NSCLC): > 100 µM
- GI50 (SW-620 colon): 21.4 µM
- TGI (SW-620 colon): 42.2 µM
- GI50 (HCT-15 colon): 12 µM
- TGI (HCT-15 colon): 25.6 µM
- GI50 (MDA-MB-435 melanoma): 20.7 µM
- TGI (MDA-MB-435 melanoma): 61.2 µM
- GI50 (NCI-H226 lung): 15.6 µM
- TGI (NCI-H226 lung): 40.4 µM
- GI50 (COLO 205 colon): 21.3 µM
- TGI (COLO 205 colon): 97.7 µM
- GI50 (UACC-62 melanoma): 14.1 µM
- TGI (UACC-62 melanoma): 27.4 µM
- GI50 (HS 578T breast): 13 µM
- TGI (HS 578T breast): 31.7 µM
- GI50 (HT29 colon): 9.66 µM
- TGI (HT29 colon): 22.7 µM
- GI50 (HOP-62 NSCLC): 17.7 µM
- TGI (HOP-62 NSCLC): 51.2 µM
- GI50 (SF-268 CNS): 19.8 µM
- TGI (SF-268 CNS): 50.8 µM
- GI50 (CCRF-CEM leukemia): 6.62 µM
- TGI (CCRF-CEM leukemia): 20 µM
- GI50 (OVCAR-8 ovarian): 22.3 µM
- TGI (OVCAR-8 ovarian): > 100 µM
- GI50 (NCI-H322M lung): 26.3 µM
- TGI (NCI-H322M lung): 92.6 µM
- GI50 (SF-539 CNS): 18 µM
- TGI (SF-539 CNS): 32.1 µM
- GI50 (EKVX NSCLC): 19.2 µM
- TGI (EKVX NSCLC): 71.8 µM
- GI50 (RPMI-8226 leukemia): 3.03 µM
- TGI (RPMI-8226 leukemia): 14.1 µM
- GI50 (BT-549 breast): 6.44 µM
- TGI (BT-549 breast): 26.2 µM
- GI50 (LOX IMVI melanoma): 17.3 µM
- TGI (LOX IMVI melanoma): 31.3 µM
- GI50 (MCF7 breast): 6.74 µM
- TGI (MCF7 breast): 23.1 µM
- GI50 (OVCAR-5 ovarian): 21.4 µM
- TGI (OVCAR-5 ovarian): 53.9 µM
- GI50 (SN12C renal): 33.1 µM
- TGI (SN12C renal): > 100 µM
- GI50 (MDA-MB-231 breast): 12.2 µM
- TGI (MDA-MB-231 breast): 32.1 µM
- GI50 (OVCAR-4 ovarian): 13.8 µM
- TGI (OVCAR-4 ovarian): 61.9 µM
- GI50 (NCI-H460 NSCLC): 15.1 µM
- TGI (NCI-H460 NSCLC): 29.4 µM
- GI50 (SK-MEL-28 melanoma): 14.7 µM
- TGI (SK-MEL-28 melanoma): 29.3 µM
- GI50 (K-562 leukemia): 5.58 µM
- TGI (K-562 leukemia): 17 µM
- GI50 (MDA-MB-468 breast): 603 nM
- TGI (MDA-MB-468 breast): 6.55 µM
- GI50 (A498 renal): 11.7 µM
- TGI (A498 renal): 26.6 µM
- GI50 (SR leukemia): 3.71 µM
- TGI (SR leukemia): 15.4 µM
- GI50 (SK-MEL-5 melanoma): 11.4 µM
- TGI (SK-MEL-5 melanoma): 23.6 µM
- GI50 (TK-10 renal): 21.4 µM
- TGI (TK-10 renal): 90 µM
- GI50 (OVCAR-3 ovarian): 11.1 µM
- TGI (OVCAR-3 ovarian): 23.5 µM
- GI50 (M14 melanoma): 14.1 µM
- TGI (M14 melanoma): 27.9 µM
- GI50 (ACHN renal): 19.9 µM
- TGI (ACHN renal): 69.4 µM
- GI50 (SF-295 CNS): 14.6 µM
- TGI (SF-295 CNS): 30.2 µM
